# Data: PubChem BioAssay (NCI)
#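 1) Cells in 96-well plates. 2) Compound, 48 h, 5 concentrations. 3) Linear interpolation between surrounding doses. 4) Unreached endpoint = highest concentration. At the TGI there is no net growth.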
# Key:
# Assay in all cases: inhibition of tumour cell growth, NCI panel, 48 h
# HOP-92 NSCLC = test system: HOP-92 NSCLC
# OVCAR-3 ovarian = test system: OVCAR-3 ovarian
# A498 renal = test system: A498 renal
# SF-539 CNS = test system: SF-539 CNS
# DMS 273 small cell lung = test system: DMS 273 small cell lung
# K-562 leukemia = test system: K-562 leukemia
# CCRF-CEM leukemia = test system: CCRF-CEM leukemia
# NCI-H226 lung = test system: NCI-H226 lung
# RPMI-8226 leukemia = test system: RPMI-8226 leukemia
# HCT-116 colon = test system: HCT-116 colon
# NCI-H522 lung = test system: NCI-H522 lung
# HCC-2998 colon = test system: HCC-2998 colon
# CAKI-1 renal = test system: CAKI-1 renal
# 786-0 renal = test system: 786-0 renal
# LXFL 529 NSCLC = test system: LXFL 529 NSCLC
# LOX IMVI melanoma = test system: LOX IMVI melanoma
# MALME-3M melanoma = test system: MALME-3M melanoma
# SF-268 CNS = test system: SF-268 CNS
# ACHN renal = test system: ACHN renal
# SK-MEL-28 melanoma = test system: SK-MEL-28 melanoma
# RXF-631 renal = test system: RXF-631 renal
# EKVX NSCLC = test system: EKVX NSCLC
# UO-31 renal = test system: UO-31 renal
# IGROV1 ovarian = test system: IGROV1 ovarian
# OVCAR-5 ovarian = test system: OVCAR-5 ovarian
# SK-MEL-2 melanoma = test system: SK-MEL-2 melanoma
# COLO 205 colon = test system: COLO 205 colon
# SNB-78 CNS = test system: SNB-78 CNS
# MOLT-4 leukemia = test system: MOLT-4 leukemia
# DMS 114 small cell lung = test system: DMS 114 small cell lung
# SR leukemia = test system: SR leukemia
# KM12 colon = test system: KM12 colon
# M14 melanoma = test system: M14 melanoma
# OVCAR-4 ovarian = test system: OVCAR-4 ovarian
# TK-10 renal = test system: TK-10 renal
# KM20L2 colon = test system: KM20L2 colon
# UACC-257 melanoma = test system: UACC-257 melanoma
# SF-295 CNS = test system: SF-295 CNS
# HOP-62 NSCLC = test system: HOP-62 NSCLC
# UACC-62 melanoma = test system: UACC-62 melanoma
# SK-OV-3 ovarian = test system: SK-OV-3 ovarian
# DLD-1 colon = test system: DLD-1 colon
# A549 NSCLC = test system: A549 NSCLC
# SW-620 colon = test system: SW-620 colon
# SNB-75 CNS = test system: SNB-75 CNS
# HCT-15 colon = test system: HCT-15 colon
# HOP-18 NSCLC = test system: HOP-18 NSCLC
# NCI-H23 lung = test system: NCI-H23 lung
# M19-MEL melanoma = test system: M19-MEL melanoma
# SNB-19 CNS = test system: SNB-19 CNS
# HL-60(TB) leukemia = test system: HL-60(TB) leukemia
# HT29 colon = test system: HT29 colon
# NCI-H460 lung = test system: NCI-H460 lung
# RXF 393 renal = test system: RXF 393 renal
# U251 CNS = test system: U251 CNS
# OVCAR-8 ovarian = test system: OVCAR-8 ovarian
# SN12C renal = test system: SN12C renal
# SK-MEL-5 melanoma = test system: SK-MEL-5 melanoma
smiles,measurement,setting,value
COC1C=CC(C(=O)[N+]2=Cc3[nH]c4ccccc4c3CC2)O1 (stereo not drawn),TGI,HOP-92 NSCLC,> 100 µM
same,TGI,OVCAR-3 ovarian,> 100 µM
same,TGI,A498 renal,> 100 µM
same,TGI,SF-539 CNS,> 100 µM
same,TGI,DMS 273 small cell lung,> 100 µM
same,TGI,K-562 leukemia,> 100 µM
same,TGI,CCRF-CEM leukemia,76.6 µM
same,TGI,NCI-H226 lung,> 100 µM
same,TGI,RPMI-8226 leukemia,> 100 µM
same,TGI,HCT-116 colon,> 100 µM
same,TGI,NCI-H522 lung,> 100 µM
same,TGI,HCC-2998 colon,> 100 µM
same,TGI,CAKI-1 renal,> 100 µM
same,TGI,786-0 renal,> 100 µM
same,TGI,LXFL 529 NSCLC,> 100 µM
same,TGI,LOX IMVI melanoma,> 100 µM
same,TGI,MALME-3M melanoma,> 100 µM
same,TGI,SF-268 CNS,> 100 µM
same,TGI,ACHN renal,> 100 µM
same,TGI,SK-MEL-28 melanoma,> 100 µM
same,TGI,RXF-631 renal,> 100 µM
same,TGI,EKVX NSCLC,> 100 µM
same,TGI,UO-31 renal,> 100 µM
same,TGI,IGROV1 ovarian,> 100 µM
same,TGI,OVCAR-5 ovarian,> 100 µM
same,TGI,SK-MEL-2 melanoma,> 100 µM
same,TGI,COLO 205 colon,> 100 µM
same,TGI,SNB-78 CNS,> 100 µM
same,TGI,MOLT-4 leukemia,> 100 µM
same,TGI,DMS 114 small cell lung,> 100 µM
same,TGI,SR leukemia,82.7 µM
same,TGI,KM12 colon,> 100 µM
same,TGI,M14 melanoma,> 100 µM
same,TGI,OVCAR-4 ovarian,> 100 µM
same,TGI,TK-10 renal,> 100 µM
same,TGI,KM20L2 colon,> 100 µM
same,TGI,UACC-257 melanoma,> 100 µM
same,TGI,SF-295 CNS,> 100 µM
same,TGI,HOP-62 NSCLC,> 100 µM
same,TGI,UACC-62 melanoma,> 100 µM
same,TGI,SK-OV-3 ovarian,> 100 µM
same,TGI,DLD-1 colon,> 100 µM
same,TGI,A549 NSCLC,> 100 µM
same,TGI,SW-620 colon,> 100 µM
same,TGI,SNB-75 CNS,> 100 µM
same,TGI,HCT-15 colon,> 100 µM
same,TGI,HOP-18 NSCLC,> 100 µM
same,TGI,NCI-H23 lung,> 100 µM
same,TGI,M19-MEL melanoma,> 100 µM
same,TGI,SNB-19 CNS,> 100 µM
same,TGI,HL-60(TB) leukemia,> 100 µM
same,TGI,HT29 colon,> 100 µM
same,TGI,NCI-H460 lung,> 100 µM
same,TGI,RXF 393 renal,> 100 µM
same,TGI,U251 CNS,> 100 µM
same,TGI,OVCAR-8 ovarian,> 100 µM
same,TGI,SN12C renal,> 100 µM
same,TGI,SK-MEL-5 melanoma,> 100 µM
CCC1=C(C)/C(=C/c2[nH]c(CBr)c(CC)c2C)N=C1CBr,TGI,HOP-92 NSCLC,26.7 µM
same,TGI,OVCAR-3 ovarian,30.1 µM
same,TGI,SF-539 CNS,38.2 µM
same,TGI,DMS 273 small cell lung,> 100 µM
same,TGI,K-562 leukemia,> 100 µM
same,TGI,CCRF-CEM leukemia,9.55 µM
same,TGI,RPMI-8226 leukemia,36.7 µM
same,TGI,NCI-H522 lung,9.67 µM
same,TGI,HCC-2998 colon,26.3 µM
same,TGI,CAKI-1 renal,25.8 µM
same,TGI,786-0 renal,40.4 µM
same,TGI,LXFL 529 NSCLC,17.9 µM
same,TGI,LOX IMVI melanoma,> 100 µM
same,TGI,MALME-3M melanoma,41 µM
same,TGI,SF-268 CNS,36.8 µM
same,TGI,SK-MEL-28 melanoma,34.2 µM
same,TGI,RXF-631 renal,> 100 µM
same,TGI,EKVX NSCLC,49.1 µM
same,TGI,UO-31 renal,15.8 µM
same,TGI,IGROV1 ovarian,38.1 µM
same,TGI,SK-MEL-2 melanoma,48.5 µM
same,TGI,COLO 205 colon,30.2 µM
same,TGI,MOLT-4 leukemia,27.6 µM
same,TGI,DMS 114 small cell lung,27.8 µM
same,TGI,KM12 colon,26.9 µM
same,TGI,M14 melanoma,33.1 µM
same,TGI,OVCAR-4 ovarian,> 100 µM
same,TGI,TK-10 renal,37.6 µM
same,TGI,KM20L2 colon,32.1 µM
same,TGI,SF-295 CNS,42.7 µM
same,TGI,HOP-62 NSCLC,34.8 µM
same,TGI,UACC-62 melanoma,24.6 µM
same,TGI,SK-OV-3 ovarian,45 µM
same,TGI,DLD-1 colon,29 µM
same,TGI,A549 NSCLC,36.7 µM
same,TGI,SW-620 colon,25.3 µM
same,TGI,SNB-75 CNS,55.9 µM
same,TGI,HCT-15 colon,27.2 µM
same,TGI,HOP-18 NSCLC,24.7 µM
same,TGI,NCI-H23 lung,46.7 µM
same,TGI,M19-MEL melanoma,33.7 µM
same,TGI,SNB-19 CNS,33.9 µM
same,TGI,HL-60(TB) leukemia,25.6 µM
same,TGI,HT29 colon,26.7 µM
same,TGI,NCI-H460 lung,38.9 µM
same,TGI,RXF 393 renal,54 µM
same,TGI,U251 CNS,24.6 µM
same,TGI,OVCAR-8 ovarian,26.6 µM
same,TGI,SN12C renal,28.3 µM
same,TGI,SK-MEL-5 melanoma,30.5 µM
